# Laboratory results as given in patent US20080145375A1, “Vaccination” (Glaxo Group Limited, priority 2003, published 2008).
# Assays:
# [1] = test system: mice immunised with p731-RNG (GW825780X); assay: IFNγ Elispot after PMID immunisation with p731-RNG, imiquimod at 0 h or 24 h; type: in vivo, mouse; details: application 24 h post immunisation; 2×0.5 ug p731-RNG by PMID; spleens day 14; GAG CD8 peptide AMQMLKETI; FIG. 5
# Method: (§1) Plasmid DNA was precipitated onto 2 μm diameter gold beads using calcium chloride and spermidine. Equal amounts of plasmids encoding antigen (p7313OVAcyt, p7313RNG, pVAC7VNTRMuc1, pVAC7VNTRMuc1-PADRE or pVAC7VNTRMuc1-HepB) and p7313GMCSF plasmids were mixed and co-precipitated so that all beads were coated with a mixture of the 2 plasmids ensuring delivery of both plasmids to the same cell. Unless otherwise stated both the antigen and GMCSF were loaded at 0.5 ug/cartridge. Where lower doses of antigen were used the GMCSF loading remained at 0.5 ug and the total DNA on the cartridge was adjusted to 1 ug using p7313empty or pVACempty plasmids. Loaded beads were coated onto Tefzel tubing as described in, for example, Eisenbraum, et al. 1993. DNA Cell Biol. 12:791-797; Pertmer et al, 1996 J. Virol. 70:6119-6125). Particle bombardment was performed using the Accell gene delivery (PCT WO 95/19799; incorporated herein by reference). […]
# (§2) Cells were removed from the plates by washing once with water (with 1 minute soak to ensure lysis of cells) and three times with PBS. […] Spots were enumerated using an image analysis system devised by Brian Hayes, Asthma Cell Biology unit, GSK or the AID Elispot reader (Cadama Biomedical, UK). […]
# Spleens were harvested at day 14 post immunisation and the cellular responses analysed by IFNγ Elispot following stimulation with a GAG balb/c CD8 9mer peptide: AMQMLKETI.
# [2] = test system: C56BI/6 mice immunised with p7313OVAcyt; assay: ELISPOT after primary PMID immunisation with p7313OVAcyt; type: in vivo, mouse; details: delivered singly with p7313 OVAcyt; Day 7 post primary immunisation; FIG. 8
# Method: as §1, with “reference). Female C56BI/6 mice were immunised with 2 administrations of plasmid at each time point as detailed in the results section, one on each side of the abdomen after shaving.” for “reference).”
# as §2
# [3] = test system: C57/bl6 mice immunised with OVAcyt; assay: In vivo cytotoxicity assay (SIINFEKL pulsed CSFE labelled splenocytes); set-up: species or system mouse; details: 3 mice per group; Day 7, 14, 21 and 42 post immunisation; FIG. 18
# Method: The effect of GMCSF and Imiquimod on cytotoxic responses to p7313OVA after primary immunisation was also measured by in vivo cytotoxicity assays (FIG. 18). C57/bl6 mice were immunised with either OVAcyt or OVAcyt+GMCSF by PMID. At 24 hours post immunisation imiquimod was applied on the immunisation site. At Day 7, 14, 21 and 42 post immunisation mice were injected i.v. with CSFE labelled splenocytes consisting of [sequence] peptide pulsed and unpulsed in equal numbers. After 2 hours the blood was analysed by flow cytometry and the ratio of pulsed to unpulsed cells remaining was calculated to give a numerical value of cytotoxicity.
# [4] = test system: mice immunised with pVAC7VNTR muc1; assay: Elispot of Muc1 CD4 responses after immunisation with pVAC7VNTR muc1; type: in vivo, mouse; details: immunised days 0 and 21; day 7 post boost; compared to pVAC 7VNTRMuc1 alone; FIG. 12
# Method: For OVA assays peptide SIINFEKL, a dominant CD8 peptide of OVA, was used in assays at a final concentration of 50 nM to measure CD8 responses and peptide […] was used at a final concentration of 10 μM to measure CD4 responses. For ICS assays Ovalbumin protein was also used to measure CD4 responses at 1 mg/ml. For ELISPOT to detect responses to p7313RNG peptide the CD8 peptide AMQMLKETI was used for stimulation. For detecting responses to Muc1, CD4 peptides […] and […] were used at 10 uM, and CD8 peptide SAPDNRPAL was used at 10 nM. The 9-mer peptides used to follow CD8 responses to Gag and RT in mice were […] (Gag CD8) and YYPDSKDLI (RT CD8) respectively, and CD4 responses to Gag and RT were followed using […] (Gag CD4) and […] (RT CD4) respectively. Peptide […] (Nef 218) was also tested. These peptides were tested at a final concentration of 10 μM. The peptides were obtained from Genemed Synthesis, South San Francisco.
# Experiments were carried out to determine the effect of GMCSF and Imiquimod treatment on responses to pVAC7VNTR Muc1. Mice were immunised at days 0 and 21 with pVAC7VNTR muc1. This was delivered alone, co-delivered with p7313GMCSF, or with p7313GMCSF and Imiquimod application at 24 hours post immunisation. Spleens were harvested at day 7 post boost and analysed by Elispot following overnight stimulation with Muc1 CD4 peptides.
# [5] = test system: RIP OVAlo mice; assay: Breaking tolerance in RIP OVAlo mice; type: in vivo, mouse; details: four immunisations at 3 weeks intervals; SIINFEKL restimulation
# Excerpt: RIP OVAlo mice were used to test the potential for tolerance breaking of the GMCSF+Imiquimod combination (FIG. 20). RIP OVAlo mice express ovalbumin (OVA) on the insulin producing beta cells of the pancreas and are therefore tolerant to this molecule. Disruption of this tolerance results in autoimmune destruction of the beta cells leading to diabetes which can be easily monitored by measurement of glycosuria and blood glucose level. RIPova lo and C57/BL6 mice (wt control group) received four immunisations with empty vector or OVAcyt (using PMID), ±GM-CSF (using PMID), and ±Imiquimod. Immunisations were given at 3 weeks intervals. Imiquimod was applied topically on the site of immunisation 24 h after PMID. 7 Days after the last immunisation splenocytes and serum samples were taken. […] The functional test for tolerance breaking in this model is development of diabetes. This is measured by urine glucose levels.
# [6] = test system: TLRs 1-9 mRNA in monocyte derived DC; assay: Taqman analysis of TLR expression on IFNγ treated DC; type: cell-based, human; details: DC treated with IFNγ for 24 hours; 3 healthy donors; FIG. 6
# Method: Monocytes were isolated from the PBMC of 3 healthy donors and cultured with IL-4 & GM-CSF for 7 days to induce differentiation to immature DC. The DC were then treated with IFNγ for 24 hours. mRNA expression of TLRs 1-9 was then measured by Taqman. In contrast to published reports we have shown that low levels of TLR7 are constitutively expressed on monocyte derived DC. […] The increase in TLR7 expression at 24 hours post stimulation in vitro provides an explanation for the results in FIG. 5 showing the good effect of Imiquimod at 24 hours post immunisation.
Compound,"adjuvant effect on cellular responses, IFNγ Elispot [1]",adjuvant effect in Elispot assays [2],in vivo cytotoxicity [3],Muc1 CD4 responses (Elispot) [4],CD8 responses (IFNγ and IL2 production in CD8+ T cells) [5],mRNA expression of TLR2 [6],mRNA expression of TLR7 and TLR8 [6]
"CC(C)Cn1cnc2c(N)nc3ccccc3c21 [Imiquimod, imiquimod]",good adjuvant effect,adjuvant effects,clear benefit over OVA alone,improved CD4 responses,there are responses,,
GMCSF,,adjuvant effects,,improved CD4 responses,there are responses,,
IFNγ: interferon-gamma used to treat monocyte derived DC for 24 hours,,,,,,upregulated but to a lesser extent,expression of TLR8 and increased levels of expression of TLR7 were found in all 3 donors
